Laboratory results from patent US5696276A, “Process for preparing 5,8-dihydroxynaphthoquinone derivatives, novel 5,8-dihydroxynaphthoquinone derivatives and their use as anticancer agent” (Kuhnil Pharmaceutical Co., Ltd., priority 1993, dated 1997).
Values after ≈ are worked out from the molar mass of the structure shown. Where two headings read alike, the source gives them in different places.

Legend:
HL-60 cells = test: Cytotoxic activity against HL-60 cells; assay type: cell-based; conditions: Homo sapiens, read-out: ED50, cytotoxic activity against HL-60
Method: As in the test for the cytotoxic activity against L1210 cells, the test samples were dissoved in ethanol or dimethylsulfoxide in a certain concentration. 0.1 ml of the sample solution was mixed with 0.9 ml of a fresh medium to prepare the dilutions. To each two test tubes having a screw cap were added 100, 50, 25 μl, respectively, of the sample dilutions by means of a micropipet. To each test tube for the test group and the control group (2√n: n=number of the samples) was added 5 ml of the dilutions of HL-60 cells and K-562 cells which were cultured and activated before 24 hours from the beginning of experiment and then diluted in a concentration of 1×10^5 cells/mi. All test tubes were cultured for 48 hours in a CO2 incubator at 37° C. and then the number of cells was counted using a haemacytometer.
The ED50 value is defined as a concentration (μg/ml) of the sample which inhibits the growth of cancer cells by 50% of the control group and determined according to a method described in NIC's mannual (NIC=National Cancer Institue, U.S.A.). The growth rate Y(%) of cells in the presence of the test sample in each concentration was calculated according to the followign equation: […]
In the above equation, T means the average cell number per ml in the test group after incubation for 48 hours in the presence of the test samples in each concentration, C means the average cell number per ml in the control group after incubation for 48 hours, and Co means the average cell number per ml in the control group at the beginning of incubation. The Y(%) value at each concentration and log10 value of each concentration were obtained and the regression curve was constructed according to the following equation from those obtained values. In this case, when all the Y(%) value obtained at each concentration is greater than 55% or lower than 45%, the experiment was repeatedly conducted.
To construct the regression curve Y=A+BX the values A and B were obtained using the following equation. [formula]
In the above, the value N is the number of selected points which is greater than 2 and lower than, or identical with, the number of cencentration of the test sample, Xi is log(concentration) i, and Yi is the growth ratio at (concentration)i. The value of ED50 was obtained for those obtained slope and intercept.

A549 cancer cells = test: Cytotoxic activity against A549 cancer cells (sulforhodamin B method); assay type: cell-based; conditions: Homo sapiens, read-out: ED50, cytotoxic activity against A549
In short: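 Cells seeded at 8×10^4 per well, attached 24 h, then exposed 48 h to six log-spaced concentrations in triplicate. TCA-fixed, SRB-stained, OD read at 520 nm; growth inhibition computed relative to time-zero and untreated counts, IC50 from regression.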

S-180 sarcoma cells = test: Animal experiment using Sarcoma S-180 cells (survival of mouse); assay type: in vivo, male ICR mouse; conditions: for responders at 15 µmol/kg / response vs control in vivo at 15 µmol/kg: daily dose 15 μmole (mg/kg/day given per compound)
In short: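 Male ICR mice (20 to 25 g) received intraperitoneal transplants of 0.1 ml S-180 cell suspension (10^7 cells/ml), prepared from ascites by washing in cold physiological saline. After 24 hours, groups of 8 to 9 mice received 7 to 8 ip injections of sample in dimethylsulfoxide diluted with saline. Controls got 2% dimethylsulfoxide-saline. Survival (T/C, %) was scored against control death.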

L1210 cells = test: Cytotoxic activity against L1210 cells; assay type: cell-based; conditions: Mus musculus, read-out: ED50, cytotoxic activity against L1210
In short: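 Log-phase L1210 cells (5×10^4 cells/ml) in Fisher medium exposed 48 h at 37 °C in CO2 to three dilutions of sample dissolved in ethanol or DMSO. Cells counted by haemacytometer; growth relative to control; ED50 (μg/ml) from linear regression of growth % on log concentration.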

[1] = A549 cells, SRB method, 48 hours
[2] = ip, 1200 h, S-180 ICR mouse, intraperitoneal, daily dose 10 μmole (mg/kg/day given per compound), 7 to 8 injections, read-out: Number of mouse survived for 50 days (converted)
[3] = ip, S-180 ICR mouse, intraperitoneal, daily dose 10 μmole (mg/kg/day given per compound), 7 to 8 injections, read-out: T/C
[4] = ip, 1200 h, S-180 ICR mouse, intraperitoneal, 7 to 8 injections, read-out: Number of mouse survived for 50 days (converted)
[5] = ip, S-180 ICR mouse, intraperitoneal, 7 to 8 injections, read-out: T/C
[6] = Mus musculus, S-180, ip, 1200 h, read-out: Number of mouse survived for 50 days
[7] = Mus musculus, S-180, ip, read-out: T/C

SMILES	IC50 (HL-60 cells; HL-60 cells, 48 hours, 37° C.)	IC50 (A549 cancer cells; [1])	responders at 10 µmol/kg (S-180 sarcoma cells; [2])	response vs control in vivo at 10 µmol/kg (S-180 sarcoma cells; [3])	IC50 (L1210 cells; L1210 cells, 48 hours, 37° C.)	responders at 15 µmol/kg (S-180 sarcoma cells; [4])	response vs control in vivo at 15 µmol/kg (S-180 sarcoma cells; [5])	responders at 10 µmol/kg (S-180 sarcoma cells; [6])	response vs control in vivo at 10 µmol/kg (S-180 sarcoma cells; [7])	IC50 (HL-60 cells; HL-60, 48 h)	IC50 (A549 cancer cells; A549, 48 h)	responders at 5 µmol/kg (S-180 sarcoma cells; [6])	response vs control in vivo at 5 µmol/kg (S-180 sarcoma cells; [7])	IC50 (L1210 cells; L1210, 48 h)
CC=CC=CC(=O)OC(CC=C(C)C)C1=CC(=O)c2c(O)ccc(O)c2C1=O (stereo not drawn) [2-[1-(2,4-hexadienoyloxy)-4-methyl-3-pentenyl]-5,8-dihydroxy-1,4-naphthoquinone]	0.6 µg/mL (≈ 1.57 µM)	0.7 µg/mL (≈ 1.83 µM)	25%	185%	0.5 µg/mL (≈ 1.31 µM)	–	–	–	–	–	–	–	–	–
CCC=CCC=CCC=CCCCCCCCC(=O)OC(CC=C(C)C)C1=CC(=O)c2c(O)ccc(O)c2C1=O (stereo not drawn) [2-(1-linolenyloxy-4-methyl-3-pentenyl)-5,8-dihydroxy-1,4-naphthoquinone]	4.8 µg/mL (≈ 8.75 µM)	> 20 µg/mL	–	–	1.5 µg/mL (≈ 2.73 µM)	0%	125%	–	–	–	–	–	–	–
C=CCCCCC(=O)OC(CC=C(C)C)C1=CC(=O)c2c(O)ccc(O)c2C1=O (stereo not drawn) [2-[1-(6-heptenoyl)oxy-4-methyl-3-pentenyl]-5,8-dihydroxy-1,4-naphthoquinone]	0.5 µg/mL (≈ 1.25 µM)	4.2 µg/mL (≈ 10.5 µM)	12.5%	192%	0.2 µg/mL (≈ 0.502 µM)	–	–	–	–	–	–	–	–	–
CC(C)=CCC(OC(=O)C=C(C)C=CC=C(C)C=CC1=C(C)CCCC1(C)C)C1=CC(=O)c2c(O)ccc(O)c2C1=O (stereo not drawn) [2-[1-(cis-retinoyl)oxy-4-methyl-3-pentenyl]-5,8-dihydroxy-1,4-naphthoquinone]	6.6 µg/mL (≈ 11.6 µM)	> 20 µg/mL	–	–	7.1 µg/mL (≈ 12.4 µM)	0%	125%	–	–	–	–	–	–	–
CCCCCCCC/C=C\CCCCCCCC(=O)OC(CC=C(C)C)C1=CC(=O)c2c(O)ccc(O)c2C1=O (stereo not drawn)	9.6 µg/mL (≈ 17.4 µM)	> 20 µg/mL	–	–	2.4 µg/mL (≈ 4.34 µM)	0%	130%	–	–	–	–	–	–	–
CCC/C=C/C(=O)OC(CC=C(C)C)C1=CC(=O)c2c(O)ccc(O)c2C1=O (stereo not drawn) [2-[1-trans-(2-hexenoyl)oxy-4-methyl-3-pentenyl]-5,8-dihydroxy-1,4-naphthoquinone]	1 µg/mL (≈ 2.6 µM)	1.6 µg/mL (≈ 4.16 µM)	12.5%	160%	0.5 µg/mL (≈ 1.3 µM)	–	–	–	–	–	–	–	–	–
CCCCCC(=O)OC(CC=C(C)C)C1=CC(=O)c2c(O)ccc(O)c2C1=O (stereo not drawn) [2-(1-n-hexanoyloxy-4-methyl-3-pentenyl)-5,8-dihydroxy-1,4-naphthoquinone]	0.7 µg/mL (≈ 1.81 µM)	2.6 µg/mL (≈ 6.73 µM)	33.3%	214%	0.2 µg/mL (≈ 0.518 µM)	–	–	–	–	–	–	–	–	–
CCCCCCCCCCCCCCCCCC(=O)OC(CC=C(C)C)C1=CC(=O)c2c(O)ccc(O)c2C1=O (stereo not drawn)	10 µg/mL (≈ 18 µM)	> 20 µg/mL	–	–	1.1 µg/mL (≈ 1.98 µM)	0%	110%	–	–	–	–	–	–	–
CC/C=C/C(=O)OC(CC=C(C)C)C1=CC(=O)c2c(O)ccc(O)c2C1=O (stereo not drawn) [2-[1-(trans-2-pentenoyloxy)-4-methyl-3-pentenyl]-5,8-dihydroxy-1,4-naphthoquinone]	0.9 µg/mL (≈ 2.43 µM)	1.1 µg/mL (≈ 2.97 µM)	–	–	0.4 µg/mL (≈ 1.08 µM)	14.3%	210%	–	–	–	–	–	–	–
CC(C)=CCC(OC(=O)C=C(C)C)C1=CC(=O)c2c(O)ccc(O)c2C1=O (stereo not drawn) [2-[1-(3,3-dimethyl)acryloxy-4-methyl-3-pentenyl]-5,8-dihydroxy-1,4-naphthoquinone]	0.05 µg/mL (≈ 0.135 µM)	1.1 µg/mL (≈ 2.97 µM)	–	–	< 0.01 µg/mL	–	–	25%	179%	–	–	–	–	–
CC(C)=CCC(OC(=O)C(C)C)C1=CC(=O)c2c(O)ccc(O)c2C1=O (stereo not drawn) [2-(1-isobutanoyloxy-4-methyl-3-pentenyl)-5,8-dihydroxy-1,4-naphthoquinone]	0.2 µg/mL (≈ 0.558 µM)	1.9 µg/mL (≈ 5.3 µM)	12.5%	185%	0.003 µg/mL (≈ 0.00837 µM)	–	–	–	–	–	–	–	–	–
C=CCC/C=C/C(=O)OC(CC=C(C)C)C1=CC(=O)c2c(O)ccc(O)c2C1=O (stereo not drawn) [2-[1-(trans-2,6-heptadienoyloxy)-4-methyl-3-pentenyl]-5,8-dihydroxy-1,4-naphthoquinone]	0.9 µg/mL (≈ 2.27 µM)	3.8 µg/mL (≈ 9.59 µM)	12.5%	180%	1.3 µg/mL (≈ 3.28 µM)	–	–	–	–	–	–	–	–	–
CC(C)=CCC(OC(=O)C(Cl)(Cl)Cl)C1=CC(=O)c2c(O)ccc(O)c2C1=O (stereo not drawn) [2-(1-trichloroacetyloxy-4-methyl-3-pentenyl)-5,8-dihydroxy-1,4-naphthoquinone]	0.3 µg/mL (≈ 0.692 µM)	2 µg/mL (≈ 4.61 µM)	0%	134%	0.01 µg/mL (≈ 0.0231 µM)	–	–	–	–	–	–	–	–	–
CC(C)=CCC(OC(=O)/C=C(C)/C=C/C=C(C)/C=C/C1=C(C)CCCC1(C)C)C1=CC(=O)c2c(O)ccc(O)c2C1=O (stereo not drawn) [2-[1-trans-retinoyloxy)-4-methyl-3-pentenyl]-5,8-dihydroxy-1,4-naphthoquinone]	4.3 µg/mL (≈ 7.53 µM)	> 20 µg/mL	–	–	3.1 µg/mL (≈ 5.43 µM)	0%	107%	–	–	–	–	–	–	–
CCC(=O)OC(CC=C(C)C)C1=CC(=O)c2c(O)ccc(O)c2C1=O (stereo not drawn) [2-(1-n-propionyloxy-4-methyl-3-pentenyl)-5,8-dihydroxy-1,4-naphthoquinone]	–	–	–	–	–	–	–	–	–	0.04 µg/mL (≈ 0.116 µM)	1.9 µg/mL (≈ 5.52 µM)	0%	100%	0.03 µg/mL (≈ 0.0871 µM)
CCCCCCCC(=O)OC(CC=C(C)C)C1=CC(=O)c2c(O)ccc(O)c2C1=O (stereo not drawn) [2-(1-n-octanoyloxy-4-methyl-3-pentenyl)-5,8-dihydroxy-1,4-naphthoquinone]	0.7 µg/mL (≈ 1.69 µM)	4.3 µg/mL (≈ 10.4 µM)	–	–	0.2 µg/mL (≈ 0.483 µM)	22.2%	235%	–	–	–	–	–	–	–
CC(C)=CCC(OC(=O)c1ccccc1)C1=CC(=O)c2c(O)ccc(O)c2C1=O (stereo not drawn) [2-(1-benzoyloxy-4-methyl-3-pentenyl)-5,8-dihydroxy-1,4-naphthoquinone]	0.1 µg/mL (≈ 0.255 µM)	2.1 µg/mL (≈ 5.35 µM)	0%	135%	0.1 µg/mL (≈ 0.255 µM)	–	–	–	–	–	–	–	–	–
CCCCCC=CCC=CCCCCCCCC(=O)OC(CC=C(C)C)C1=CC(=O)c2c(O)ccc(O)c2C1=O (stereo not drawn) [2-[1-(9,12-octadecadinoyloxy-4-methyl-3-pentenyl]-5,8-dihydroxy-1,4-naphthoquinone]	12.5 µg/mL (≈ 22.7 µM)	> 20 µg/mL	–	–	5 µg/mL (≈ 9.08 µM)	0%	100%	–	–	–	–	–	–	–
CCCC(=O)OC(CC=C(C)C)C1=CC(=O)c2c(O)ccc(O)c2C1=O (stereo not drawn) [2-(1-n-butanoyloxy-4-methyl-3-pentenyl)-5,8-dihydroxy-1,4-naphthoquinone]	0.1 µg/mL (≈ 0.279 µM)	2.5 µg/mL (≈ 6.98 µM)	0%	181%	0.01 µg/mL (≈ 0.0279 µM)	–	–	–	–	–	–	–	–	–
CCCCCCCCCC(=O)OC(CC=C(C)C)C1=CC(=O)c2c(O)ccc(O)c2C1=O (stereo not drawn) [2-(1-n-decanoyloxy-4-methyl-3-pentenyl)-5,8-dihydroxy-1,4-naphthoquinone]	1.1 µg/mL (≈ 2.49 µM)	15 µg/mL (≈ 33.9 µM)	–	–	0.7 µg/mL (≈ 1.58 µM)	0%	110%	–	–	–	–	–	–	–
CCCCCCCCC(=O)OC(CC=C(C)C)C1=CC(=O)c2c(O)ccc(O)c2C1=O (stereo not drawn) [2-(1-n-nonanoyloxy-4-methyl-3-pentenyl)-5,8-dihydroxy-1,4-naphthoquinone]	1 µg/mL (≈ 2.33 µM)	6.9 µg/mL (≈ 16.1 µM)	0%	206%	0.5 µg/mL (≈ 1.17 µM)	–	–	–	–	–	–	–	–	–
